Measurements: PMC9496553, “The Dual-Targeted Peptide Conjugated Probe for Depicting Residual Nasopharyngeal Carcinoma and Guiding Surgery” (Biosensors, 2022)
No end group written: not given here.

What was measured:
Type in all cases: in vivo, BALB/c nude mice
[1] = test system: 5-8F-fLuc orthotopic tumours; assay: Fluorescence imaging of orthotopic nasopharyngeal tumours; settings: orthotopic model, n = 5, i.v. 12 μM, imaged up to 48 h post-injection
Procedure: (§1) Animal experiments were performed in accordance with the approval of Animal Welfare and Ethics Committee of Jinan University (approval number: IACUC-20211210-03). Four-week-old BALB/c nude mice were purchased from the Beijing Vital River Laboratory Animal Technology Co., Ltd. (Beijing, China). Subcutaneous tumour models received a subcutaneous injection of 5-8F (5.0 × 10^6 in 200 μL PBS) in the lower right flank. Experiments were started 10–14 days after tumour implantation, when the tumour diameter was 6–8 mm. Tumour volumes were measured using a Vernier calliper and calculated using the formula for a hemiellipsoid (volume = 0.5236 × length × width^2), as this form best approximated the tumour shape. For orthotopic tumour models, mice were anaesthetised using isoflurane with a precision vaporiser at 1% and injected with 25 μL of 1.1 × 10^5 5-8F-fLuc cells into the nasopharynx using a 28-gauge needle, as previously reported. […]
(§2) To identify the minimal size of detectable tumours, subcutaneous tumours of different sizes (1–7 mm; n = 8) were injected with 12 μM FY-35, and imaged at 24 h post-injection to measure MFI in the tumour region. […] Serial sections were cut at a thickness of 10 μm for fluorescence imaging using an inverted microscope (Leica, Wetzlar, Germany), and 4 μm for haematoxylin–eosin (H&E) staining.

5-8F tumours [2] = assay: Biodistribution and tumour selectivity by whole-body fluorescence imaging, subcutaneous tumour model; settings: for maximum TBR (tumour-to-background ratio): i.v. 12 μM, tumour region vs ipsilateral auricle
Procedure: Animal experiments were performed in accordance with the approval of Animal Welfare and Ethics Committee of Jinan University (approval number: IACUC-20211210-03). Four-week-old BALB/c nude mice were purchased from the Beijing Vital River Laboratory Animal Technology Co., Ltd. (Beijing, China). Subcutaneous tumour models received a subcutaneous injection of 5-8F (5.0 × 10^6 in 200 μL PBS) in the lower right flank. Experiments were started 10–14 days after tumour implantation, when the tumour diameter was 6–8 mm. Tumour volumes were measured using a Vernier calliper and calculated using the formula for a hemiellipsoid (volume = 0.5236 × length × width^2), as this form best approximated the tumour shape. For orthotopic tumour models, mice were anaesthetised using isoflurane with a precision vaporiser at 1% and injected with 25 μL of 1.1 × 10^5 5-8F-fLuc cells into the nasopharynx using a 28-gauge needle, as previously reported. Mice were fed a specific pathogen-free unit, and animal surgery was performed in a sterile hood. Orthotopic tumours were visualised and tracked by bioluminescence imaging (BLI) using an IVIS® Spectrum In Vivo Imaging System (PerkinElmer, Waltham, MA, USA). Specifically, mice received an intraperitoneal injection of 3 mg/mL luciferin bioluminescent substrate (Perkin Elmer, Waltham, MA, USA) 4 min before imaging.
Mice with subcutaneous 5-8F tumours were randomly divided into three groups (n = 3 per group). The three groups received intravenous (i.v.) injection with 12 μM FY-35 (dual-target dye), 12 μM FL-35 (single-target dye), and equimolar quantities of free dye, respectively. Fluorescence images were acquired pre-, 2 h, 6 h, 10 h, and 24 h post-injection. The mice in each group were euthanised. The heart, lung, liver, pancreas, spleen, kidney, intestine, and tumour tissues were collected for ex vivo imaging. The MFI was analysed to determine organ biodistribution and tumour selectivity in the three groups. The TBR was calculated by drawing regions of interest within the tumour region and ipsilateral auricle of each mouse.

5-8F tumours [3] = assay: Minimal size of detectable subcutaneous tumours by fluorescence imaging; settings: 12 μM, n = 8
Procedure: as §1, §2

Row | Substance | retention of optical contrast in the tumour region [1] | contrast improved compared to single-targeted tracer (IR800-FL-35) (5-8F tumours [2]; at 24 h post-injection) | maximum TBR (tumour-to-background ratio) (5-8F tumours [2]; subcutaneous 5-8F tumours) | maximum TBR, fold higher than that of IR800-FL-35 (5-8F tumours [2]; subcutaneous 5-8F tumours) | tumour volume at which the MFI increased remarkably (5-8F tumours [3]; 24 h post-injection) | minimum size of detectable tumours (5-8F tumours [3]; imaged 24 h post-injection, subcutaneous tumours 1–7 mm)
1 | IR800-FY-35: bispecific peptide FY-35 labelled with IRDye 800CW (FAEKFKEAVKDYFAKFWDGSGLTVSPWYLTVSPWY; also: IRDye 800CW label, site not given here) | 48 h | 2.3 fold | 13.83 | 2.3 fold | 32 mm^3 | 3.9 mm
2 | IR800-FL-35: single-targeted peptide FL-35 labelled with IRDye 800CW (FAEKFKEAVKDYFAKFWDGSGSYTYSTPVWVPLWL; also: IRDye 800CW label, site not given here) | – | – | 5.99 | – | – | –
